Results on 10 compounds are retold here after ChEMBL document CHEMBL1129066, “Novel terphenyls as selective cyclooxygenase-2 inhibitors and orally active anti-inflammatory agents” (J Med Chem, 1996).

pIC50: −log10 of the molar value.

The target of experiment [1] is Prostaglandin G/H synthase 1 (Homo sapiens, UniProt P23219).
For experiment [2], the species on record is Rattus norvegicus. Nature of the experiment: animal or person. In kind it is functional.
The species named for experiment [3] is Rattus norvegicus. Nature of the experiment: animal or person. In kind it is functional. This is another data set of the same source.
The species entered for experiment [4] is Rattus norvegicus. Nature of the experiment: animal or person. The experiment is classed as functional. This is another data set of the same source.
Experiment [5] is filed under the species Rattus norvegicus. Nature of the experiment: animal or person. In kind it is functional. This is another data set of the same source.

Chain of Prostaglandin G/H synthase 1 (P23219 whole entry): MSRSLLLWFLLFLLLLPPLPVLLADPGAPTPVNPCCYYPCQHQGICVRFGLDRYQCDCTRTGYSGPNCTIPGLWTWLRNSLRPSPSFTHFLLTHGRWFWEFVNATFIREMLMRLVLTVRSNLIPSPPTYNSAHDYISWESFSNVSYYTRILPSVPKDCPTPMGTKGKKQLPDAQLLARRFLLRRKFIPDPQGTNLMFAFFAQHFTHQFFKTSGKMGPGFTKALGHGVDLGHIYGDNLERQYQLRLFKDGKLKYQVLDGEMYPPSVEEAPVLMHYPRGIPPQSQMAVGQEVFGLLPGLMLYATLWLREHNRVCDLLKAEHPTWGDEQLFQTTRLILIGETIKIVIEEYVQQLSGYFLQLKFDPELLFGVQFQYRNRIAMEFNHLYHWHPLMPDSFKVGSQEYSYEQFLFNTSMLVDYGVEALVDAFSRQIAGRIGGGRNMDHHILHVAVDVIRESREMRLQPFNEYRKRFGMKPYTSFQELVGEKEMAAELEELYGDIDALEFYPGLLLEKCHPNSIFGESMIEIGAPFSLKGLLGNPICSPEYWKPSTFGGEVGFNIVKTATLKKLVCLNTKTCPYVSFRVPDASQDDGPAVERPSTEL

Take `CS(=O)(=O)c1ccc(-c2cc3ccccc3cc2-c2ccc(F)cc2)cc1`: the pIC50 – broadly, −log10 of the IC50, conventionally taken in molar units – in experiment [1] is below 4.00.
`NS(=O)(=O)c1ccc(-c2ccccc2-c2ccc(F)cc2)cc1`: the ED50 (usually the midpoint of the dose-response relation) is above 50 mg/kg in the experiment filed under Rattus norvegicus [2] and 1.5 mg/kg in the experiment listed under Rattus norvegicus [3].
As for `CS(=O)(=O)c1ccc(-c2cc3c(cc2-c2ccc(F)cc2)OCO3)cc1`, in the experiment listed under Rattus norvegicus [4], the inhibition in vivo (as a rule, the percentage by which the read-out fell short of the control) at 2 mg/kg amounted to 0%.
Still for that read-out and setting: the same measure for `NS(=O)(=O)c1ccc(-c2cc3c(cc2-c2ccc(F)cc2)OCO3)cc1`: 26%.
For `NS(=O)(=O)c1ccc(-c2cc(F)c(F)cc2-c2ccc(F)c(Cl)c2)cc1`, the 50% effective dose (ED50) came out at 38.7 mg/kg in the experiment filed under Rattus norvegicus [5] and 0.05 mg/kg in the experiment listed under Rattus norvegicus [3].
In experiment [1], `CS(=O)(=O)c1ccc(-c2c(F)c(F)c(F)c(F)c2-c2ccc(F)cc2)cc1` showed a pIC50 below 4.00.
Still for that read-out and setting: the same measure for `CS(=O)(=O)c1ccc(-c2cc(F)c(F)cc2-c2ccc3c(c2)OCCO3)cc1`: below 4.00.
Consider `CS(=O)(=O)c1ccc(-c2cc(Cl)c(Cl)cc2-c2ccc(F)cc2)cc1`, for which the negative logarithm of the IC50 (pIC50) in experiment [1] was below 4.00.
Consider `CS(=O)(=O)c1ccc(-c2nccnc2-c2ccc(F)cc2)cc1`, for which, in experiment [1], the pIC50 was below 4.00.
Still for that read-out and setting: under `COc1c(Cl)cc(-c2cc(F)c(F)cc2-c2ccc(S(C)(=O)=O)cc2)cc1Cl` stands below 4.00.
